Data as given in patent publication US20250122207A1, “AP2 ASSOCIATED KINASE 1 INHIBITORS AND USES THEREOF” (Satellos Bioscience Inc., priority 2023, published 2025).

Tests used:
[1] = biological target: AAK1 (Homo sapiens, UniProt Q2M2I8); assay: pAP2M1 cell-based assay (in-cell Western); conditions: Hela cells co-transfected with AP2M1 and AAK1, 3 hr treatment; class symbols; read-out: AAK1 In-cell Western: IC50
Description: pAP2M1 Cell-Based Assay (in-Cell Western):
The plate was read on Licor Odyssey CLx imaging system (LICOR) to acquire fluorescence intensity at 700 channel and 800 channel.
Data analysis: Fluorescence intensity at 700 channel served as internal standard and 800 channel were normalized with 700 channel.

[2] = biological target: T1, GAK (amino acids Q25-N335) (Homo sapiens, UniProt O14976); assay: GAK pSENs assay; format: biochemical; conditions: class symbols; read-out: GAK pSENs:IC50
T1 construct: against GAK (amino acids Q25-N335); 6His (N, cleaved yes)
T1 sequence (O14976 25-335): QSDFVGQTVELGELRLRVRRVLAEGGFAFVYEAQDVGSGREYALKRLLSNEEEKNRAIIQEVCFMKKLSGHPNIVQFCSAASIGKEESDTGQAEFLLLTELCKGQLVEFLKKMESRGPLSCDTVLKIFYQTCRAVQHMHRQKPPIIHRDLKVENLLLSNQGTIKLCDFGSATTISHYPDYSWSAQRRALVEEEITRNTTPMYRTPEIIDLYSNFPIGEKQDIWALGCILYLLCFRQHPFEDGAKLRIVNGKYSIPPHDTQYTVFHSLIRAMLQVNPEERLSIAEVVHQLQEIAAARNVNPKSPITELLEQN
Method: The recombinant proteins were independently expressed in Escherichia coli BL21(DE3) cells cultured in Luria-Bertani (LB) medium until OD600 reached 0.6-0.8, then cooled to 15° C. and supplemented with 0.5 mM isopropyl 1-thio-D-galactopyranoside (IPTG) induce protein expression 16 h. Cells were harvested and resuspended in lysis buffer (50 mM HEPES pH 7.5, 500 mM NaCl, 5 mM imidazole, 5% glycerol, 0.5 mM Tris (2-carboxyethyl) phosphine (TCEP), cOmplete Protease Inhibitor Tablet (Roche)) and lysed by microfludics high pressure homogenizer (UH-06, Union-Biotech). Proteins were purified using […] chromatography (His FF column, Bestchrom) and eluted stepwise in binding buffer with 20-300 mM imidazole. Removal of the hexahistidine tag was performed at 4° C. overnight using recombinant TEV protease and reacted with BirA to obtain the corresponding biotinylated-AAK1, BIKE or GAK proteins. Further separated in the reverse Strep column (Strep-Tactin® XT, IBA). The Biotin elution sample was collected containing untagged biotinylated protein was then purified by Ion-exchange chromatography (Mono Q 10/100 GL, Cytiva) and Size-exclusion chromatography (HiLoad 16/600 Superdex 200 pg, Cytiva). The pure protein was stored in a storage buffer 50 mM HEPES (pH 7.5), 300 mM NaCl, 5% glycerol at −80° C. Protein were characterized by SDS-PAGE, LC-MS and aSEC.
This example describes one illustrative method for determining the IC50 of the compounds of the present invention against GAK (amino acids Q25-N335).

[3] = biological target: T2, BIKE (amino acids S38-E345) (K320A, K321A) (Homo sapiens, UniProt Q9NSY1, K320A/K321A); assay: BIKE pSENs assay; format: biochemical; conditions: class symbols; read-out: BIKE pSENs: IC50
T2 construct: against BIKE (amino acids S38-E345) (K320A, K321A); 6His (N, cleaved yes)
Summary of the method: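 E. coli-expressed, biotinylated, tag-free BIKE at 20 nM in HEPES pH 7.5 buffer with 10 mM MgCl2 preincubated with compound 15 min at 25° C. Reaction started with 30 uM AQT0759 sensor peptide and 40 uM ATP (concentrations before 1:1 mixing).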

[4] = biological target: T3, AAK1 (amino acids T27-A365) (Homo sapiens, UniProt Q2M2I8); assay: AAK1 pSENs assay; format: biochemical; conditions: class symbols; read-out: AAK1 pSENs: EIC50
T3 construct: against AAK1 (amino acids T27-A365); 6His (N, cleaved yes)
Summary of the method: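 Biotinylated, tag-free AAK1 T27-A365 expressed in E. coli was held at 20 nM in enzyme solution (HEPES pH 7.5, 10 mM MgCl2, DTT, EGTA, Brij35, BSA) and preincubated with compound for 15 min at 25 °C. The reaction was started with an equal volume of substrate solution containing 30 uM AQT0759 peptide and 70 uM ATP. IC50 determined.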

T2 sequence (Q9NSY1 38-345 K320A/K321A): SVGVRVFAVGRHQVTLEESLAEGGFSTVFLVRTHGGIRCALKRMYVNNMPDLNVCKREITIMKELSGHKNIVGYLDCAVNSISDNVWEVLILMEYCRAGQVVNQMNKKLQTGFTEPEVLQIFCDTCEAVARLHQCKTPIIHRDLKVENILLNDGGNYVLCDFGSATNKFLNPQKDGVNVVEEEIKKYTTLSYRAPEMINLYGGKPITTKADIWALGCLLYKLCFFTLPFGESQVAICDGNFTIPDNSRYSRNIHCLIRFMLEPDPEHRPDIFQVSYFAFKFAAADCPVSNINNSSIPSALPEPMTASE
AAK1, sequence (Q2M2I8 whole entry): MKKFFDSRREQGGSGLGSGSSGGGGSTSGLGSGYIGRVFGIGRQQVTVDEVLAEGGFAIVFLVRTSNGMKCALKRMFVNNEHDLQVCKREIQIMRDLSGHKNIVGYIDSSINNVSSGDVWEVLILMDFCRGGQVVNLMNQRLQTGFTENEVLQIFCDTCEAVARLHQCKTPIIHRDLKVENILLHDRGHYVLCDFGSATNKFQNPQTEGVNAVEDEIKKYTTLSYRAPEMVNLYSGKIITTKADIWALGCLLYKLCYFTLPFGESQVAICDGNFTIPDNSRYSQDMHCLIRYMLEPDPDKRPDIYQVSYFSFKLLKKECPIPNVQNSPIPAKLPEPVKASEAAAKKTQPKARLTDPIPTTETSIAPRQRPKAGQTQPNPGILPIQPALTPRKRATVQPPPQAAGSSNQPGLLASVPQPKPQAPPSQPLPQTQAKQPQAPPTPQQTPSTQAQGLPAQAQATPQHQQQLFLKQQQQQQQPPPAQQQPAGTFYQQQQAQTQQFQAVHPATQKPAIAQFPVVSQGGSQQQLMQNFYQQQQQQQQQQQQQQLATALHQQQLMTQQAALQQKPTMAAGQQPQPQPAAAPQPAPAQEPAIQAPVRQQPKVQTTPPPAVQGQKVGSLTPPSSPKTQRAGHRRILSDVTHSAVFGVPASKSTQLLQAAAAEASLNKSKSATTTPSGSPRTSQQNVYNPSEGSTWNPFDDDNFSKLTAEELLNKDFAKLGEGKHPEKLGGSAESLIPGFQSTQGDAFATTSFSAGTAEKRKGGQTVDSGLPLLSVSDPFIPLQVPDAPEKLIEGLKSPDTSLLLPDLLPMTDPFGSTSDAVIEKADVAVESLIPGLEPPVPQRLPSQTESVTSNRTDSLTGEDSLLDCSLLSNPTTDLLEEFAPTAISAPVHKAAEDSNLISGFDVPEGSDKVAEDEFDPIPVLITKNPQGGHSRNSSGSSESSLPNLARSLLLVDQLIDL
T3 sequence (Q2M2I8 27-365): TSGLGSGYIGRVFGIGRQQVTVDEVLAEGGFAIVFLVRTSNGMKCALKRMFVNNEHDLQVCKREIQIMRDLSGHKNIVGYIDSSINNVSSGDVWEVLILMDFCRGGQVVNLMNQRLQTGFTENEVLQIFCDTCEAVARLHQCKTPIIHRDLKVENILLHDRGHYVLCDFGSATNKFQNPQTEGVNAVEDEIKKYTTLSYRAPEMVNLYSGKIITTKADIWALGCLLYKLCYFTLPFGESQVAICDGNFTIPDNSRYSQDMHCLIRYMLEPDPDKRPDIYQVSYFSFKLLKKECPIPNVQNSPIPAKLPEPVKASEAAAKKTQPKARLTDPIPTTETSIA

Row | SMILES | IC50 [1] [nM] | IC50 [2] [nM] | IC50 [3] [nM] | IC50 [4] [nM]
1 | CC1(OC(=O)N2CCN(c3ccn4ncc(-c5ccc(C(N)=O)cc5)c4n3)CC2)COC1 [Compound I-3, (3-methyloxetan-3-yl)-4-[3-(4-carbamoylphenyl)pyrazolo[1,5-a]pyrimidin-5-yl]piperazine-1-carboxylate] | 501 to 1500 | 501 to 1500 | 51 to 150 | 1 to 50
2 | CC1(OC(=O)N2CCN(c3ccn4ncc(-c5cccc(C(N)=O)c5)c4n3)CC2)COC1 [Compound I-4, (3-methyloxetan-3-yl)-4-[3-(3-carbamoylphenyl)pyrazolo[1,5-a]pyrimidin-5-yl]piperazine-1-carboxylate] | 501 to 1500 | 501 to 1500 | 501 to 1500 | 51 to 150
3 | COc1ncccc1-c1cnn2ccc(N3CCN(C(=O)OC4CCNC4)CC3)nc12 (stereo not drawn) [Compound I-5, Pyrrolidin-3-yl4-[3-(2-methoxy-3-pyridyl)pyrazolo[1,5-a]pyrimidin-5-yl]piperazine-1-carboxylate] | 151 to 500 | 501 to 1500 | 1 to 50 | 1 to 50
4 | COc1ncccc1-c1cnn2ccc(N3CCN(C(=O)OC4(C)CCNC4)CC3)nc12 (stereo not drawn) [Compound I-8, (3-Methylpyrrolidin-3-yl)-4-[3-(2-methoxy-3-pyridyl)pyrazolo[1,5-a]pyrimidin-5-yl]piperazine-1-carboxylate] | 1 to 50 | 151 to 500 | 1 to 50 | 1 to 50
5 | C#CC1(OC(=O)N2CCN(c3ccn4ncc(-c5cccnc5OC)c4n3)CC2)CCNC1 (stereo not drawn) [Compound I-9, (3-Ethynylpyrrolidin-3-yl) 4-[3-(2-methoxy-3-pyridyl)pyrazolo[1,5-a]pyrimidin-5-yl]piperazine-1-carboxylate] | 51 to 150 | 151 to 500 | 1 to 50 | 1 to 50
6 | CN(CCNc1ccn2ncc(-c3cccnc3OC3CC3)c2n1)C(=O)OC(C)(C)C [Compound I-12, tert-butyl N-[2-[[3-[2-(Cyclopropoxy)-3-pyridyl]pyrazolo[1,5-a]pyrimidin-5-yl]amino]ethyl]-N-methyl-carbamate] | 151 to 500 | 501 to 1500 | 51 to 150 | 1 to 50
7 | C[C@@]1(OC(=O)N2CCN(c3ccn4ncc(-c5cccnc5OC5CC5)c4n3)CC2)CCNC1 [Compound I-14, [(3R)-3-Methylpyrrolidin-3-yl]-4-[3-[2-(cyclopropoxy)-3-pyridyl]pyrazolo[1,5-a]pyrimidin-5-yl]piperazine-1-carboxylate] | 151 to 500 | 501 to 1500 | 151 to 500 | 1 to 50
8 | C#C[C@]1(OC(=O)N2CCN(c3ccn4ncc(-c5cccnc5OC5CC5)c4n3)CC2)CCNC1 [Compound I-15, [(3R)-3-Ethynylpyrrolidin-3-yl]-4-[3-[2-(cyclopropoxy)-3-pyridyl]pyrazolo[1,5-a]pyrimidin-5-yl]piperazine-1-carboxylate] | 51 to 150 | 151 to 500 | 151 to 500 | 1 to 50
9 | C#C[C@@]1(OC(=O)N2CCN(c3ccn4ncc(-c5cccnc5OC5CC5)c4n3)CC2)CCNC1 [Compound I-16, [(3S)-3-Ethynylpyrrolidin-3-yl]-4-[3-[2-(cyclopropoxy)-3-pyridyl]pyrazolo[1,5-a]pyrimidin-5-yl]piperazine-1-carboxylate] | 1 to 50 | 51 to 150 | 1 to 50 | 1 to 50
10 | C#CC1(OC(=O)N2CCN(c3ccn4ncc(-c5cccnc5OC5CC5)c4n3)CC2)CCNC1 (stereo not drawn) [Compound I-16-7, 3-ethynylpyrrolidin-3-yl-4-(3-(2-cyclopropoxypyridin-3-yl)pyrazolo[1,5-a]pyrimidin-5-yl)piperazine-1-carboxylate] | 1 to 50 | 51 to 150 | 51 to 150 | 1 to 50
11 | CC(C)Oc1ncccc1-c1cnn2ccc(N3CCN(C(=O)OC4(C)CCNC4)CC3)nc12 (stereo not drawn) [Compound I-21-5, (3-methylpyrrolidin-3-yl)-4-[3-(2-isopropoxy-3-pyridyl)pyrazolo[1,5-a]pyrimidin-5-yl]piperazine-1-carboxylate] | 151 to 500 | 151 to 500 | 151 to 500 | 1 to 50
12 | CC(C)Oc1ncccc1-c1cnn2ccc(N3CCN(C(=O)O[C@]4(C)CCNC4)CC3)nc12 [Compound I-22, [(3R)-3-methylpyrrolidin-3-yl]4-[3-(2-isopropoxy-3-pyridyl)pyrazolo[1,5-a]pyrimidin-5-yl]piperazine-1-carboxylate] | 51 to 150 | 51 to 150 | 51 to 150 | 1 to 50
13 | CC(C)(C)OC(=O)N1CCC(N2C[C@H](OC(=O)N3CCN(c4ccn5ncc(-c6cccnc6OC6CC6)c5n4)CC3)CC2=O)CC1 [Compound I-31, (R)-1-(1-(tert-Butoxycarbonyl)piperidin-4-yl)-5-oxopyrrolidin-3-yl 4-(3-(2-cyclopropoxypyridin-3-yl)pyrazolo[1,5-a]pyrimidin-5-yl)piperazine-1-carboxylate] | > 1500 | 501 to 1500 | 151 to 500 | 151 to 500
14 | O=C1C[C@H](OC(=O)N2CCN(c3ccn4ncc(-c5cccnc5OC5CC5)c4n3)CC2)CN1CCOCc1ccccc1 [Compound I-37, [(3S)-1-(2-benzyloxyethyl)-5-oxo-pyrrolidin-3-yl]-4-[3-[2-(cyclopropoxy)-3-pyridyl]pyrazolo[1,5-a]pyrimidin-5-yl]piperazine-1-carboxylate] | 501 to 1500 | 501 to 1500 | 501 to 1500 | 1 to 50
15 | O=C1C[C@H](OC(=O)N2CCN(c3ccn4ncc(-c5cccnc5NC5CC5)c4n3)CC2)CN1 [Compound I-45, [(3S)-5-Oxopyrrolidin-3-yl]4-[3-[2-(cyclopropylamino)-3-pyridyl]pyrazolo[1,5-a]pyrimidin-5-yl]piperazine-1-carboxylate] | > 1500 | > 1500 | > 1500 | > 1500
16 | C[C@@]1(OC(=O)N2CCN(c3ccn4ncc(-c5cccnc5OC5CC5)c4n3)CC2)CCN(CC(N)=O)C1 [Compound I-51, (R)-1-(2-amino-2-oxoethyl)-3-(methylpyrrolidin-3-yl)-4-(3-(2-cyclopropoxypyridin-3-yl)pyrazolo[1,5-a]pyrimidin-5-yl)piperazine-1-carboxylate] | 151 to 500 | 501 to 1500 | 501 to 1500 | 1 to 50
17 | CN(CCNc1ccn2ncc(-c3cccnc3OC3CC3)c2n1)C(=O)O[C@]1(C)CCNC1 [Compound I-61, (R)-3-methylpyrrolidin-3-yl (2-((3-(2-cyclopropoxypyridin-3-yl)pyrazolo[1,5-a]pyrimidin-5-yl)amino)ethyl)(methyl)carbamate] | 501 to 1500 | 151 to 500 | 51 to 150 | 1 to 50
18 | COc1ncccc1-c1cnn2ccc(NCCN(C)C(=O)O[C@H]3CO[C@H]4OCC[C@H]43)nc12 [Compound I-70, (3R,3aS,6aR)-hexahydrofuro[2,3-b]furan-3-yl (2-((3-(2-methoxypyridin-3-yl)pyrazolo[1,5-a]pyrimidin-5-yl)amino)ethyl)(methyl)carbamate] | 501 to 1500 | 501 to 1500 | 51 to 150 | 1 to 50
